According to patent publication US20190054098A1, “AGENTS AND METHODS USING THEREOF FOR THE PREVENTION AND TREATMENT OF STEM CELLS SENESCENCE” (ECOLE POLYTECHNIQUE FEDERALE DE LAUSANNE (EPFL), priority 2015, published 2019):

Tested on: C2C12 myoblasts
Experiment: Expression of UPRmt markers, prohibitins and cell cycle regulators in C2C12 myoblasts treated with TAP (FIG. 3)
Format: cell-based
Details: 50 μg/ml TAP, different treatment periods (FIG. 3)
Experimental: Total RNA was extracted from MuSCs by sorting cells directly into TriPure RNA isolation reagent (Roche) or from cultured C2C12 myoblasts using TriPure reagent according to the product manual. Total RNA was transcribed to cDNA using QuantiTect Reverse Transcription Kit (Qiagen). Expression of selected genes was analyzed using the LightCycler480 system (Roche) and LightCycler® 480 SYBR Green I Master reagent (Roche). The acidic ribosomal protein 36b4 gene (ribosomal protein, large, P0, Rplp0) was used as housekeeping reference. C2C12 cells were lysed in a buffer composed of 50 mM Tris, 150 mM KCl, EDTA 1 mM, NP40 1%, nicotinamide 5 mM, sodium butyrate 1 mM and protease inhibitors cocktail (Roche) at pH 7.4. Proteins were separated by SDS-PAGE and transferred onto nitrocellulose membranes. Blocking and antibody incubations were performed in 3% BSA. The following primary antibodies were used: anti-cleavage caspase 3 (Cell Signalling); Anti-γH2AX (Millipore); anti-β-actin (Sigma). All secondary antibodies were from Jackson Immunoresearch. Antibody detection reactions were developed by enhanced chemiluminescence (Advansta, CA, USA) using x-ray films or imaged using the c300 imaging system (Azure Biosystems). The following primary antibodies were used: anti-HSP60 (Enzo Life Science); anti-PHB (Biolegend); anti-PHB2 (Santa Cruz); anti-CKD4 (Novus biologicals); anti-CCND1 (Santa Cruz); anti-CCND3 (Santa Cruz); anti-HSP90 (BD Biosciences); HSP70 (Abcam); anti-MT-CO1 (Biolegend); anti-ATP5A (Biolegend); anti-Grp78 (Abcam); and anti-CLPP (Sigma).

`CS(=O)(=O)c1ccc([C@@H](O)[C@@H](CO)NC(=O)C(Cl)Cl)cc1` [thiamphenicol] was tested, and the “UPR^mt induction” value was “induction”, the “cell cycle gene expression / cell cycle regulators” value was “induced” and the mitonuclear imbalance was “induces”. The prohibitins expression was “induced”, the “UPR^mt induction” value (listed as TAP) was “induces” and the “cell cycle gene expression / cell cycle regulators” value (listed as TAP) was “induces”.
